Results as given in patent US12281108B2, “Pyrrolidinone derivatives as formyl peptide 2 receptor agonists” (BRISTOL-MYERS SQUIBB COMPANY, priority 2018, dated 2025).
Read-outs that look alike come from different tables or passages of the source.

Key:
human FPR1 receptors = target: T1, human FPR1 receptors (Homo sapiens, UniProt P21462); test: FPR1 cAMP assay in CHO cells overexpressing human FPR1 (HTRF); type: cell-based; conditions: forskolin 10 μM, inhibition of cAMP production, read-out: hFPR1 cAMP EC50
T1 sequence (P21462 1-350): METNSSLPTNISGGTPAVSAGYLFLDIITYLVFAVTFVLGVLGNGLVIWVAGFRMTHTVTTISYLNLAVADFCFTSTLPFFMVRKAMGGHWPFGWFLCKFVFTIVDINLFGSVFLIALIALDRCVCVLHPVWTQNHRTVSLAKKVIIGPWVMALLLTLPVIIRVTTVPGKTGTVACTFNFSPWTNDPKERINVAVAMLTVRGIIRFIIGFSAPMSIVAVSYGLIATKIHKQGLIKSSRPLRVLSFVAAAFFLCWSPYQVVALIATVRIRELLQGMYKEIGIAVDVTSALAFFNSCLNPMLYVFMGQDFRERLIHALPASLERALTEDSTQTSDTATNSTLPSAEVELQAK
Excerpt: (§1) N-formyl peptide receptors (FPRs) are a family of chemo attractant receptors that facilitate leukocyte response during inflammation. FPRs belong to the seven-transmembrane G protein-coupled receptor superfamily and are linked to inhibitory G-proteins (Gi). Three family members (FPR1, FPR2 and FPR3) have been identified in humans and are predominantly found in myeloid cells with varied distribution and have also been reported in multiple organs and tissues. After agonist binding, the FPRs activate a multitude of physiological pathways, such as intra cellular signaling transduction, Ca^2+ mobilization and transcription. The family interacts with a diverse set of ligands that includes proteins, polypeptides and fatty acid metabolites which activate both pro-inflammatory and pro-resolution downstream responses. FPR2 and FPR1 Cyclic Adenosine Monophosphate (cAMP) Assays were used to measure the in vitro activity of the compounds disclosed in this application.
FPR2 and FPR1 Cyclic Adenosine Monophosphate (cAMP) Assays. A mixture of forskolin (5 μM final for FPR2 or 10 μM final for FPR1) and IBMX (200 μM final) were added to 384-well Proxiplates (Perkin-Elmer) pre-dotted with test compounds in DMSO (1% final) at final concentrations in the range of 0.020 nM to 100 μM. Chinese Hamster Ovary cells (CHO) overexpressing human FPR1 or human FPR2 receptors were cultured in F-12 (Ham's) medium supplemented with 10% qualified FBS, 250 μg/ml zeocin and 300 μg/ml hygromycin (Life Technologies). […] The level of intracellular cAMP was determined using the HTRF HiRange cAMP assay reagent kit (Cisbio) according to manufacturer's instruction. […] After a 1-h room temperature incubation, time-resolved fluorescence intensity was measured using the Envision (Perkin-Elmer) at 400 nm excitation and dual emission at 590 nm and 665 nm. […] The potency and activity of a compound to inhibit cAMP production was then determined by fitting to a 4-parametric logistic equation from a plot of cAMP level versus compound concentrations.

human FPR2 receptors = target: T2, human FPR2 receptors (Homo sapiens, UniProt P25090); test: FPR2 cAMP assay in CHO cells overexpressing human FPR2 (HTRF); type: cell-based
T2 sequence (P25090 1-351): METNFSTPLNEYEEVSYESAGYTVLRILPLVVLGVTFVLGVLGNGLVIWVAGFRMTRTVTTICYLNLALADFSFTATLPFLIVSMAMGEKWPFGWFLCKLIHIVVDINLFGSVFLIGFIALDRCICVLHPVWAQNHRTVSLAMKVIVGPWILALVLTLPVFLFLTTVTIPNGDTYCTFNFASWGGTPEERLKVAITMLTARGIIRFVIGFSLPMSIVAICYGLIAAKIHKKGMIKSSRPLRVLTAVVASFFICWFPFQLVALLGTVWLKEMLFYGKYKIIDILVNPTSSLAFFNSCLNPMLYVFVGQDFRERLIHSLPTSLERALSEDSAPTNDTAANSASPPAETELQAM
Excerpt: as §1
FPR2 and FPR1 Cyclic Adenosine Monophosphate (cAMP) Assays. A mixture of forskolin (5 μM final for FPR2 or 10 μM final for FPR1) and IBMX (200 μM final) were added to 384-well Proxiplates (Perkin-Elmer) pre-dotted with test compounds in DMSO (1% final) at final concentrations in the range of 0.020 nM to 100 μM. Chinese Hamster Ovary cells (CHO) overexpressing human FPR1 or human FPR2 receptors were cultured in F-12 (Ham's) medium supplemented with 10% qualified FBS, 250 μg/ml zeocin and 300 μg/ml hygromycin (Life Technologies). Reactions were initiated by adding 2,000 human FPR2 cells per well or 4,000 human FPR1 cells per well in Dulbecco's PBS (with calcium and magnesium) (Life Technologies) supplemented with 0.1% BSA (Perkin-Elmer). The reaction mixtures were incubated for 30 min at room temperature. The level of intracellular cAMP was determined using the HTRF HiRange cAMP assay reagent kit (Cisbio) according to manufacturer's instruction. Solutions of cryptate conjugated anti-cAMP and d2 flurorophore-labelled cAMP were made in a supplied lysis buffer separately. Upon completion of the reaction, the cells were lysed with equal volume of the d2-cAMP solution and anti-cAMP solution. After a 1-h room temperature incubation, time-resolved fluorescence intensity was measured using the Envision (Perkin-Elmer) at 400 nm excitation and dual emission at 590 nm and 665 nm. A calibration curve was constructed with an external cAMP standard at concentrations ranging from 1 μM to 0.1 pM by plotting the fluorescent intensity ratio from 665 nm emission to the intensity from the 590 nm emission against cAMP concentrations. The potency and activity of a compound to inhibit cAMP production was then determined by fitting to a 4-parametric logistic equation from a plot of cAMP level versus compound concentrations.

[1] = CHO cells overexpressing human FPR2, forskolin 5 μM, inhibition of cAMP production, read-out: hFPR2 cAMP2 EC50
[2] = hFPR2 assay, potency bins, read-out: hFPR2 agonist activity EC50

SMILES	EC50 (human FPR1 receptors)	EC50 (human FPR2 receptors; [1])	EC50 (human FPR2 receptors; [2])
COc1cc(F)c([C@@H]2CNC(=O)[C@H]2Nc2nnc(-c3ccc(SC(F)(F)F)cc3)o2)c(F)c1 [Example 18, (3S,4R)-4-(2,6-difluoro-4-methoxyphenyl)-3-[(5-{4-[(trifluoromethyl)sulfanyl]phenyl}-1,3,4-oxadiazol-2-yl)amino]pyrrolidin-2-one]	160 nM	6.7 nM	
COc1cc(F)c([C@@H]2CNC(=O)[C@H]2Nc2cc(-c3ccc(C(F)F)cc3)on2)c(F)c1 [Example 22, (3S,4R)-4-(2,6-difluoro-4-methoxyphenyl)-3-({5-[4-(difluoromethyl)phenyl]-1,2-oxazol-3-yl}amino)pyrrolidin-2-one]	2900 nM	890 nM	
COc1cc(F)c([C@@H]2CNC(=O)[C@H]2Nc2nnc(-c3ccc(Oc4ccc(C(F)(F)F)nc4)cc3)o2)c(F)c1 [Example 58, (3S,4R)-4-(2,6-difluoro-4-methoxyphenyl)-3-{[5-(4-{[6-(trifluoromethyl)pyridin-3-yl]oxy}phenyl)-1,3,4-oxadiazol-2-yl]amino}pyrrolidin-2-one]	870 nM	71 nM	
COc1cc(F)c([C@@H]2CNC(=O)[C@H]2Nc2nnc(-c3ccc(Oc4cncc(C)n4)cc3)o2)c(F)c1 [Example 63, (3S,4R)-4-(2,6-difluoro-4-methoxyphenyl)-3-[(5-{4-[(6-methylpyrazin-2-yl)oxy]phenyl}-1,3,4-oxadiazol-2-yl)amino]pyrrolidin-2-one]			40 to 150 nM
COc1cc(F)c([C@@H]2CNC(=O)[C@H]2Nc2nnc(-c3ccc(Oc4cccc(F)n4)cc3)o2)c(F)c1 [Example 64, (3S,4R)-4-(2,6-difluoro-4-methoxyphenyl)-3-[(5-{4-[(6-fluoropyridin-2-yl)oxy]phenyl}-1,3,4-oxadiazol-2-yl)amino]pyrrolidin-2-one]			≤ 40 nM
COc1cc(F)c([C@@H]2CNC(=O)[C@H]2Nc2nnc(-c3ccc(Oc4ccc(F)cn4)cc3)o2)c(F)c1 [Example 65, (3S,4R)-4-(2,6-difluoro-4-methoxyphenyl)-3-[(5-{4-[(5-fluoropyridin-2-yl)oxy]phenyl}-1,3,4-oxadiazol-2-yl)amino]pyrrolidin-2-one]			40 to 150 nM
COc1cc(F)c([C@@H]2CNC(=O)[C@H]2Nc2nnc(-c3ccc(Oc4ncccc4C#N)cc3)o2)c(F)c1 [Example 66, 2-[4-(5-{[(3S,4R)-4-(2,6-difluoro-4-methoxyphenyl)-2-oxopyrrolidin-3-yl]amino}-1,3,4-oxadiazol-2-yl)phenoxy]pyridine-3-carbonitrile]			40 to 150 nM
COc1cc(F)c([C@@H]2CNC(=O)[C@H]2Nc2nnc(-c3ccc(Oc4cccc(OC)n4)cc3)o2)c(F)c1 [Example 67, (3S,4R)-4-(2,6-difluoro-4-methoxyphenyl)-3-[(5-{4-[(6-methoxypyridin-2-yl)oxy]phenyl}-1,3,4-oxadiazol-2-yl)amino]pyrrolidin-2-one]			150 to 1000 nM
COc1cc(F)c([C@@H]2CNC(=O)[C@H]2Nc2nnc(-c3ccc(Oc4cc(Cl)ccn4)cc3)o2)c(F)c1 [Example 68, (3S,4R)-3-[(5-{4-[(4-chloropyridin-2-yl)oxy]phenyl}-1,3,4-oxadiazol-2-yl)amino]-4-(2,6-difluoro-4-methoxyphenyl)pyrrolidin-2-one]			≤ 40 nM
